Measurements reported in patent US20190141999A1, “Methods For Repelling Blood-Sucking And Biting Insects, Ticks And Mites” (The United States of America, as represented by the …, priority 2017, published 2019).
Read-outs that look alike come from different tables or passages of the source. Marks after values point to notes of the source that are not given here.

Columns and labels:
stable flies [1] = assay: stable fly laboratory repellent bioassay (blood-feeding); type: in vivo, Stomoxys calcitran
Procedure: Comparisons of coconut oil, coconut FFA, and lauric acid against stable fly blood-feeding: Using our modified stable fly laboratory repellent bioassay, we tested coconut oil, coconut FFA and its major compositional compound, lauric acid, for their repellency against stable flies.
In FIG. 11, repellent activity tests were conducted under the laboratory conditions (22° C., 50% RH), 48-hr starved stable flies were used, and a total of at least 5 replicates were accumulated.

horn flies [2] = assay: horn fly blood-feeding repellency; type: in vivo, Haematobia irritans
Procedure: Comparisons of coconut FFA, methyl laurate, and lauric acid against horn fly blood-feeding: We also tested coconut FFA and its major compositional compound, lauric acid, for their repellency against horn flies. […] F=41.5 P<0.0001). Dose response curves of repellency against horn flies from coconut FFA and lauric acid: […] F=4.08-4.38 P<0.05). […] A 50% repellency was shown when the dose was reduced to 2 mg. No significant differences in the least repellency concentrations were found among the two repellent candidates, with average 7 mg of both coconut FFA and lauric acid was needed.

bed bugs [3] = assay: bed bug petri-dish repellency assay; type: in vivo, Cimex letularius
Source text: (§1) Bed bugs chose to rest on control tents (hexane-treated) when given a choice of coconut FFA-treated tent (FIG. 9C). This effect lasted on tents treated 14 d earlier.

Aedes aegypti [4] = assay: minimum effective dosage for biting protection; type: in vivo; conditions: N = 3-5
Aedes aegypti [5] = assay: arm-in-cage assay, biting protection; type: in vivo; conditions: 1st hour, N = 3
stable flies [6] = conditions: for knock-down: lowest dose, 2 mg; for knock-down times: 20 mg and 10 mg doses
stable flies [7] = assay: stable fly laboratory repellent bioassay (blood-feeding); type: in vivo, Stomoxys calcitran; conditions: for repellency of C8 to C18 acids: FIG. 3
horn flies [8] = assay: mortality of horn flies after exposure; type: in vivo
Source text: The present invention discloses a blood-sucking insects and biting insects (e.g., stable flies, horn flies, ticks and mites repellent compounds (e.g., lauric acid), identified from coconut oil that is listed as a GRAS (Generally Recognized as Safe, http://www.fda.gov/Food/IngredientsPackagingLabeling/GRAS/) substance. Coconut oil is an edible oil extracted from the kernel or meat of mature coconuts harvested from the coconut palm (https://en.wikipedia.org/wiki/Coconut_oil). It contains a high level of low molecular weight saturated fatty acids (Gervajio, G. C., Fatty acids and derivatives from coconut oil, IN: Bailey's Industrial Oil and Fat Products, Sixth Edition, Six Volume Set, Fereidoon Shahidi, Ed., 2005, John Wiley & Sons, Inc.). […] Both have over 2-weeks longevity deterring stable fly feeding (>90% repellency). […] This compound is listed as one of CFR 21 products that is permitted for direct addition to food for human consumption by FDA (Code of Federal Regulations, Title 21). […]

ticks = assay: tick repellency (species not stated); type: in vivo; conditions: at 1.25%
bed bugs [9] = assay: bed bug choice among treated tents (harborages); type: in vivo, Cimex letularius; conditions: control (hexane) vs treated tent
Source text: as §1

## CCCCCCCCCCCC(=O)O [lauric acid]
Stable flies [1]; 2 mg dose
  repellency against stable flies: No repellency
Stable flies [1]; in vivo
  LR50 (95% C.I.), least repellency concentration: 3.69 (3.23-6.53) mg/24 cm^2
  LR90 (95%, C.I.), least repellency concentration: 13.61 (9.11-32.59) mg/24 cm^2
  average amount needed to achieve 90% repellency: 13 mg
Horn flies [2]; 2 mg dose
  repellency against horn flies: 50%
Horn flies [2]; in vivo
  least repellency concentration, average amount needed: 7 mg
Bed bugs [3]; at 5%
  effectiveness duration: up to 24 hours
  repellency against bedbugs: 100%
Aedes aegypti [4]
  Minimum effective dosage required for biting protection: 0.75 mg/cm^2
Aedes aegypti [4]; listed as Lauric acid
  Minimum effective dosage required for biting protection: 0.750 ± 0.000 mg/cm^2
Aedes aegypti [5]; 6.25%
  biting protection: 20 ± 0%
Aedes aegypti [5]; 12.50%
  biting protection: 20 ± 0%
Aedes aegypti [5]; 25% (0.42 mg/cm^2)
  biting protection: 73%
Aedes aegypti [5]; 25% (0.42 mg/cm^2), listed as Lauric acid
  biting protection: 74 ± 6%
Aedes aegypti [5]; 50%
  biting protection: 60 ± 11%
Stable flies [6]; stable flies
  toxic effect: no toxic effect
Stable flies [7]; 2-week longevity test (FIG. 5)
  repellency in longevity test: 94%

## CCCCCCCCCCCC(=O)OC [methyl laurate]
Horn flies [8]; horn flies
  time to mortality after exposure: 15 to 20 min
Horn flies [8]; horn flies after exposure
  mortality: 100%
ticks
  repellency against ticks: 100%
Stable flies [6]
  knock-down: no knock-down
Stable flies [6]; stable flies
  mean LD: 11 to 20 min
  time to mortality after exposure: 15 to 20 min
  toxic effect: least toxic compound
Stable flies [6]; stable flies after exposure
  mortality: 100%
Stable flies [7]; 20 mg dosage, listed as C12 Me
  repellency against stable flies: 100%
Stable flies [7]; initial bioassays, dose not stated
  repellency of methyl esters: ~100%

## CCCCCCCCCCCCC(=O)O [C13]
Stable flies [7]; dose not stated
  repellency of C8 to C18 acids: strongest repellency

## CCCCCCCCC(=O)O [C9]
Stable flies [7]; dose not stated
  repellency of C8 to C18 acids: strongest repellency

## CCN(CC)C(=O)c1cccc(C)c1 [DEET, N,N-diethyl-m-toluamide, reference compound]
Bed bugs [3]; 7th day after application (FIG. 9B)
  repellency remaining: below 40%
Bed bugs [9]
  choice of control tents over treated tents: no longer significant at 7 d and 14 d
Aedes aegypti [4]
  Minimum effective dosage required for biting protection: 0.047 ± 0.000 mg/cm^2
Aedes aegypti [5]; 6.25%
  biting protection: 58-88* %
Aedes aegypti [5]; 12.50%
  biting protection: 77-97* %
Aedes aegypti [5]; 25% (0.42 mg/cm^2)
  biting protection: ≈93* %

## CCCCCCCCCCC(=O)O [C11]
Stable flies [7]; dose not stated
  repellency of C8 to C18 acids: strongest repellency

## CCCCCCCCCC(=O)OC [C10 Me, Methyl decanoate]
Stable flies [1]; 20 mg dosage
  repellency against stable flies: 100%
Stable flies [6]
  knock-down times: significantly shorter knock-down times
Stable flies [6]; in vivo
  mortality: ~100%
Stable flies [6]; stable flies
  knock-down time: less than 3 mins
  toxic effect: most active toxicant
Stable flies [6]; stable flies, listed as 10 Me ester
  time to mortality after exposure: 10 to 15 min
Stable flies [6]; stable flies, listed as C10 methyl ester
  time to mortality after exposure: < 10 min

## CCCCCCCC(=O)OC [C8 Me, Methyl octanoate]
Stable flies [1]; 2 mg dose
  repellency against stable flies: strongest repellency
Stable flies [1]; 20 mg dosage
  repellency against stable flies: 100%
Stable flies [6]
  knock-down times: significantly shorter knock-down times
  knock-down: no knock-down

## CCCCCCCC/C=C\CCCCCCCC(=O)OC [methyl oleate]
Stable flies [1]; 20 mg dosage
  repellency against stable flies: did not showed significant repellency

## CCCCCCCC(=O)O [C8 acid, Caprylic acid]
Stable flies [7]; dose not stated
  repellency of C8 to C18 acids: > 80%
